Tests used:
[1] = Weight change under controlled humidity conditions, first study (SPM made by the toluene slurry); type: physicochemical; settings: for Percent change based on average of final two weights: monohydrate
From the text: Study of weight change under controlled humidity conditions, samples were placed in open vials, which were placed in closed controlled-humidity jars. Relative humidities were controlled using saturated aqueous salt solutions: 58% RH, NaBr; 75% RH, (NH4)2 SO4; 76%, sodium acetate; 84% RH, KBr. Water uptake/loss characteristics of SPM and SPA were compared. Samples were kept at ambient temperature under various relative humidities (RHs) and were periodically weighed. […] The fact that SPM loses significant mass under even high humidity conditions is inconsistent with the loss of only water.

[2] = Repeated water uptake study with solvent-free SPM (dichloromethane preparation); type: physicochemical
From the text: Study of weight change under controlled humidity conditions, samples were placed in open vials, which were placed in closed controlled-humidity jars. Relative humidities were controlled using saturated aqueous salt solutions: 58% RH, NaBr; 75% RH, (NH4)2 SO4; 76%, sodium acetate; 84% RH, KBr.
A possible cause of the observed weight loss is that some reaction solvent (toluene in this case) from the preparation of SPM remained on the solid and evaporated in the humidity jars. To test this theory, it was decided to prepare SPM, show it to be solvent-free, and repeat the water uptake studies. Dichloromethane was chosen as the organic solvent for the preparation rather than toluene because its lower boiling point should allow it to be removed from the solid more easily and completely. SPM was made by stirring a slurry of SPA and one equivalent of water in dichloromethane for 2 days, then isolation by filtration and air-drying of the solid SPM.
The remainder of the SPM sample was allowed to dry in an open jar under ambient conditions for about 1 week. It was then characterized by XRPD elemental analysis, and Karl Fischer (KF) analysis. The sample appears to be pure SPM containing very little, if any, residual solvent.
Both SPM and SPA increased in weight about 20% when equilibrium was reached (constant weight) at each humidity utilized. The samples were analyzed by XRPD after completion of the water uptake experiments. […] The nature of this form has not been determined.

For O=C1NC(=O)C(c2ccccc2)(c2ccccc2)N1 [SPM, sodium phenytoin monohydrate], the “Percent change based on average of final two weights” value (shortened to “Percent change based on average”) ([1]; 58% RH) was -10%, the “Percent change based on average” value ([1]; 75% RH) was -10% and the “Percent change based on average” value ([1]; 84% RH) was -9%. The “weight lost on reaching constant weight” value ([1]; all humidities utilized, ambient temperature) was 10%, the sample weight ([2]; 58% RH, day 0 (starting weight), monohydrate) was 1.5057 g and the “change in starting weight” value ([2]; 58% RH, day 1, monohydrate) was “+0.0186 g”. For the same molecule, the sample weight ([2]; 58% RH, day 1, monohydrate) was 1.5243 g, the “change in starting weight” value ([2]; 58% RH, day 2, monohydrate) was “+0.0269 g” and the sample weight ([2]; 58% RH, day 2, monohydrate) was 1.5326 g. For the same molecule, the “change in starting weight” value ([2]; 58% RH, day 3, monohydrate) was “+0.0384 g”, the sample weight ([2]; 58% RH, day 3, monohydrate) was 1.5441 g and the “change in starting weight” value ([2]; 58% RH, day 4, monohydrate) was “+0.0510 g”. For the same molecule, the sample weight ([2]; 58% RH, day 4, monohydrate) was 1.5567 g, the “change in starting weight” value ([2]; 58% RH, day 5, monohydrate) was “+0.0620 g” and the sample weight ([2]; 58% RH, day 5, monohydrate) was 1.5677 g. For the same molecule, the “change in starting weight” value ([2]; 58% RH, day 6, monohydrate) was “+0.0717 g”, the sample weight ([2]; 58% RH, day 6, monohydrate) was 1.5774 g and the “change in starting weight” value ([2]; 58% RH, day 7, monohydrate) was “+0.0816 g”. The sample weight ([2]; 58% RH, day 7, monohydrate) was 1.5873 g, the “change in starting weight” value ([2]; 58% RH, day 8, monohydrate) was “+0.0940 g” and the sample weight ([2]; 58% RH, day 8, monohydrate) was 1.5997 g. The “change in starting weight” value ([2]; 58% RH, day 10, monohydrate) was “+0.1185 g”, the sample weight ([2]; 58% RH, day 10, monohydrate) was 1.6242 g and the “change in starting weight” value ([2]; 58% RH, day 11, monohydrate) was “+0.1340 g”. The sample weight ([2]; 58% RH, day 11, monohydrate) was 1.6397 g, the “change in starting weight” value ([2]; 58% RH, day 12, monohydrate) was “+0.1486 g” and the sample weight ([2]; 58% RH, day 12, monohydrate) was 1.6543 g. The “change in starting weight” value ([2]; 58% RH, day 13, monohydrate) was “+0.1555 g”, the sample weight ([2]; 58% RH, day 13, monohydrate) was 1.6612 g and the “change in starting weight” value ([2]; 58% RH, day 14, monohydrate) was “+0.1633 g”. For the same molecule, the sample weight ([2]; 58% RH, day 14, monohydrate) was 1.6690 g, the “change in starting weight” value ([2]; 58% RH, day 15, monohydrate) was “+0.1719 g” and the sample weight ([2]; 58% RH, day 15, monohydrate) was 1.6776 g. For the same molecule, the “change in starting weight” value ([2]; 58% RH, day 16, monohydrate) was “+0.1794 g”, the sample weight ([2]; 58% RH, day 16, monohydrate) was 1.6851 g and the “change in starting weight” value ([2]; 58% RH, day 17, monohydrate) was “+0.1860 g”. The sample weight ([2]; 58% RH, day 17, monohydrate) was 1.6917 g, the “change in starting weight” value ([2]; 58% RH, day 21, monohydrate) was “+0.2176 g” and the sample weight ([2]; 58% RH, day 21, monohydrate) was 1.7233 g. For the same molecule, the “change in starting weight” value ([2]; 58% RH, day 23, monohydrate) was “+0.2323 g”, the sample weight ([2]; 58% RH, day 23, monohydrate) was 1.7380 g and the “change in starting weight” value ([2]; 58% RH, day 26, monohydrate) was “+0.2525 g”. For the same molecule, the sample weight ([2]; 58% RH, day 26, monohydrate) was 1.7582 g, the “change in starting weight” value ([2]; 58% RH, day 35) was “+0.2556 g” and the sample weight ([2]; 58% RH, day 35) was 1.7613 g. The “change in starting weight” value ([2]; 58% RH, day 42) was “+0.2511 g”, the sample weight ([2]; 58% RH, day 42) was 1.7568 g and the “Percent change based on average” value ([2]; 58% RH, monohydrate) was “+17%”. The sample weight ([2]; 75% RH, day 0 (starting weight), monohydrate) was 1.5013 g, the “change in starting weight” value ([2]; 75% RH, day 1, monohydrate) was “+0.0470 g” and the sample weight ([2]; 75% RH, day 1, monohydrate) was 1.5483 g. For the same molecule, the “change in starting weight” value ([2]; 75% RH, day 2, monohydrate) was “+0.0930 g”, the sample weight ([2]; 75% RH, day 2, monohydrate) was 1.5943 g and the “change in starting weight” value ([2]; 75% RH, day 3, monohydrate) was “+0.1386 g”. For the same molecule, the sample weight ([2]; 75% RH, day 3, monohydrate) was 1.6399 g, the “change in starting weight” value ([2]; 75% RH, day 4, monohydrate) was “+0.1819 g” and the sample weight ([2]; 75% RH, day 4, monohydrate) was 1.6832 g. The “change in starting weight” value ([2]; 75% RH, day 5, monohydrate) was “+0.2205 g”, the sample weight ([2]; 75% RH, day 5, monohydrate) was 1.7218 g and the “change in starting weight” value ([2]; 75% RH, day 6, monohydrate) was “+0.2552 g”. For the same molecule, the sample weight ([2]; 75% RH, day 6, monohydrate) was 1.7565 g, the “change in starting weight” value ([2]; 75% RH, day 7, monohydrate) was “+0.2874 g” and the sample weight ([2]; 75% RH, day 7, monohydrate) was 1.7887 g. The “change in starting weight” value ([2]; 75% RH, day 8, monohydrate) was “+0.2752 g”, the sample weight ([2]; 75% RH, day 8, monohydrate) was 1.7765 g and the “change in starting weight” value ([2]; 75% RH, day 10, monohydrate) was “+0.2725 g”. The sample weight ([2]; 75% RH, day 10, monohydrate) was 1.7738 g, the “change in starting weight” value ([2]; 75% RH, day 11, monohydrate) was “+0.2768 g” and the sample weight ([2]; 75% RH, day 11, monohydrate) was 1.7781 g. For the same molecule, the “change in starting weight” value ([2]; 75% RH, day 12, monohydrate) was “+0.1796 g”, the sample weight ([2]; 75% RH, day 12, monohydrate) was 1.7809 g and the “change in starting weight” value ([2]; 75% RH, day 13, monohydrate) was “+0.2678 g”. The sample weight ([2]; 75% RH, day 13, monohydrate) was 1.7781 g, the “change in starting weight” value ([2]; 75% RH, day 14, monohydrate) was “+0.2755 g” and the sample weight ([2]; 75% RH, day 14, monohydrate) was 1.7768 g. The “change in starting weight” value ([2]; 75% RH, day 15, monohydrate) was “+0.2755 g”, the sample weight ([2]; 75% RH, day 15, monohydrate) was 1.7768 g and the “change in starting weight” value ([2]; 75% RH, day 16, monohydrate) was “+0.2761 g”. The sample weight ([2]; 75% RH, day 16, monohydrate) was 1.7774 g, the “change in starting weight” value ([2]; 75% RH, day 17, monohydrate) was “+0.2741 g” and the sample weight ([2]; 75% RH, day 17, monohydrate) was 1.7754 g. For the same molecule, the “Percent change based on average” value ([2]; 75% RH, monohydrate) was “+18%”, the sample weight ([2]; 84% RH, day 0 (starting weight), monohydrate) was 1.5068 g and the “change in starting weight” value ([2]; 84% RH, day 1, monohydrate) was “+0.0595 g”. For the same molecule, the sample weight ([2]; 84% RH, day 1, monohydrate) was 1.5663 g, the “change in starting weight” value ([2]; 84% RH, day 2, monohydrate) was “+0.1159 g” and the sample weight ([2]; 84% RH, day 2, monohydrate) was 1.6227 g. The “change in starting weight” value ([2]; 84% RH, day 3, monohydrate) was “+0.1762 g”, the sample weight ([2]; 84% RH, day 3, monohydrate) was 1.6830 g and the “change in starting weight” value ([2]; 84% RH, day 4, monohydrate) was “+0.2309 g”. The sample weight ([2]; 84% RH, day 4, monohydrate) was 1.7377 g, the “change in starting weight” value ([2]; 84% RH, day 5, monohydrate) was “+0.2801 g” and the sample weight ([2]; 84% RH, day 5, monohydrate) was 1.7869 g. The “change in starting weight” value ([2]; 84% RH, day 6, monohydrate) was “+0.2965 g”, the sample weight ([2]; 84% RH, day 6, monohydrate) was 1.8033 g and the “change in starting weight” value ([2]; 84% RH, day 7, monohydrate) was “+0.2910 g”. For the same molecule, the sample weight ([2]; 84% RH, day 7, monohydrate) was 1.7978 g, the “change in starting weight” value ([2]; 84% RH, day 8, monohydrate) was “+0.2932 g” and the sample weight ([2]; 84% RH, day 8, monohydrate) was 1.8000 g. For the same molecule, the “change in starting weight” value ([2]; 84% RH, day 10, monohydrate) was “+0.2997 g”, the sample weight ([2]; 84% RH, day 10, monohydrate) was 1.8065 g and the “change in starting weight” value ([2]; 84% RH, day 11, monohydrate) was “+0.3062 g”. The sample weight ([2]; 84% RH, day 11, monohydrate) was 1.8130 g, the “change in starting weight” value ([2]; 84% RH, day 12, monohydrate) was “+0.3099 g” and the sample weight ([2]; 84% RH, day 12, monohydrate) was 1.8167 g. The “change in starting weight” value ([2]; 84% RH, day 13, monohydrate) was “+0.3090 g”, the sample weight ([2]; 84% RH, day 13, monohydrate) was 1.8158 g and the “change in starting weight” value ([2]; 84% RH, day 14, monohydrate) was “+0.3055 g”. The sample weight ([2]; 84% RH, day 14, monohydrate) was 1.8123 g, the “change in starting weight” value ([2]; 84% RH, day 15, monohydrate) was “+0.2996 g” and the sample weight ([2]; 84% RH, day 15, monohydrate) was 1.8064 g. For the same molecule, the “change in starting weight” value ([2]; 84% RH, day 16, monohydrate) was “+0.2961 g”, the sample weight ([2]; 84% RH, day 16, monohydrate) was 1.8029 g and the “change in starting weight” value ([2]; 84% RH, day 17, monohydrate) was “+0.2916 g”. The sample weight ([2]; 84% RH, day 17, monohydrate) was 1.7984 g, the “Percent change based on average” value ([2]; 84% RH, monohydrate) was “+20%” and the “crystal form after completion of water uptake experiments (XRPD)” value ([2]; each humidity utilized) was “another hydrated crystal form was produced”. The “increase in weight at equilibrium (constant weight)” value ([2]; each humidity utilized) was “about 20%”.

From US6245917A, “Crystalline sodium phenytoin monohydrate” (Warner-Lambert Company, priority 1999, dated 2001)
